According to the supplement of paper PMC10307832:

Assays:
Test in all cases: relative viability (nuclei count vs DMSO), 5 days (fraction); higher = more cells survive
FG-4592 + Foretinib = compound: Cc1nc(C(=O)NCC(=O)O)c(O)c2ccc(Oc3ccccc3)cc12 [FG-4592] + COc1cc2c(Oc3ccc(NC(=O)C4(C(=O)Nc5ccc(F)cc5)CC4)cc3F)ccnc2cc1OCCCN1CCOCC1 [Foretinib] (partner 0.25 µM)
How it was run: (§1)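 Relative viability is defined as nuclei in treated wells over nuclei in vehicle wells. Duplicate plates were run and medians reported. Lung cancer cell lines in 1536-well plates were dosed by pin tool one day after seeding, with one drug or with a fixed anchor-drug dose plus five library-drug doses (not always all listed) in √10 steps, and nuclei were counted after 5 days.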

FG-4592 + Pemetrexed = compound: Cc1nc(C(=O)NCC(=O)O)c(O)c2ccc(Oc3ccccc3)cc12 [FG-4592] + Nc1nc2[nH]cc(CCc3ccc(C(=O)N[C@@H](CCC(=O)O)C(=O)O)cc3)c2c(=O)[nH]1 [Pemetrexed] (partner 0.2 µM)
How it was run: as §1

FG-4592 + Trametinib = compound: Cc1nc(C(=O)NCC(=O)O)c(O)c2ccc(Oc3ccccc3)cc12 [FG-4592] + CC(=O)Nc1cccc(-n2c(=O)n(C3CC3)c(=O)c3c(Nc4ccc(I)cc4F)n(C)c(=O)c(C)c32)c1 [Trametinib] (partner 0.02 µM)
How it was run: as §1

IU1-47 + Pemetrexed = compound: CC1=CC(=C(N1C2=CC=C(C=C2)Cl)C)C(=O)CN3CCCCC3 [IU1-47] + Nc1nc2[nH]cc(CCc3ccc(C(=O)N[C@@H](CCC(=O)O)C(=O)O)cc3)c2c(=O)[nH]1 [Pemetrexed] (partner 0.2 µM)
How it was run: as §1

Cell Line | relative viability (FG-4592 + Foretinib; first compound 0.08 µM) | relative viability (FG-4592 + Foretinib; first compound 0.253 µM) | relative viability (FG-4592 + Foretinib; first compound 2.53 µM) | relative viability (FG-4592 + Foretinib; first compound 8 µM) | relative viability (FG-4592 + Pemetrexed; first compound 0.08 µM) | relative viability (FG-4592 + Pemetrexed; first compound 0.253 µM) | relative viability (FG-4592 + Pemetrexed; first compound 0.8 µM) | relative viability (FG-4592 + Pemetrexed; first compound 2.53 µM) | relative viability (FG-4592 + Pemetrexed; first compound 8 µM) | relative viability (FG-4592 + Trametinib; first compound 0.08 µM) | relative viability (FG-4592 + Trametinib; first compound 0.253 µM) | relative viability (FG-4592 + Trametinib; first compound 0.8 µM) | relative viability (FG-4592 + Trametinib; first compound 2.53 µM) | relative viability (FG-4592 + Trametinib; first compound 8 µM) | relative viability (IU1-47 + Pemetrexed; first compound 0.08 µM) | relative viability (IU1-47 + Pemetrexed; first compound 0.253 µM) | relative viability (IU1-47 + Pemetrexed; first compound 0.8 µM) | relative viability (IU1-47 + Pemetrexed; first compound 8 µM) | relative viability (FG-4592 + Foretinib; first compound 0.8 µM) | relative viability (IU1-47 + Pemetrexed; first compound 2.53 µM)
LC-2-ad | 0.88 | 0.838 | 0.789 | 0.877 | 0.29 | 0.29 | 0.269 | 0.26 | 0.288 | 0.896 | 0.675 | 0.953 | 0.842 | 0.967 | 0.284 | 0.283 | 0.268 | 0.262 | – | –
CAL-12T | 1.05 | 0.746 | 1.02 | 1.01 | 1.21 | 1.3 | 1.3 | 0.974 | 1.04 | 0.367 | 0.307 | 0.301 | 0.29 | 0.219 | 1.2 | 1.39 | 1.15 | 1.04 | 1.06 | 1.34
RERF-LC-KJ | 0.853 | 0.868 | 0.888 | 0.771 | 0.466 | 0.472 | 0.481 | 0.486 | 0.498 | 0.841 | 0.848 | 0.763 | 0.876 | 0.857 | 0.503 | 0.454 | 0.523 | 0.479 | 0.817 | 0.389
NCI-H1650 | 1.24 | 0.903 | 1.33 | 1.04 | 0.388 | 0.346 | 0.409 | 0.362 | 0.344 | 0.604 | 0.573 | 0.615 | 0.603 | 0.628 | 0.419 | 0.338 | 0.335 | 0.294 | 1.21 | 0.36
BEN | 0.522 | 0.597 | 0.764 | 0.464 | 0.548 | 0.649 | 0.592 | 0.822 | 0.726 | 0.916 | 0.913 | 0.783 | 0.879 | 0.871 | 0.732 | 0.765 | 0.899 | 0.674 | 0.607 | 0.523
EMC-BAC-2 | 0.997 | 0.995 | 1.06 | 0.977 | 0.407 | 0.407 | 0.447 | 0.434 | 0.423 | 0.939 | 0.892 | – | 0.845 | 0.88 | 0.458 | 0.436 | 0.556 | 0.468 | 1.01 | 0.459
LU99A | 0.789 | 0.791 | 0.879 | 0.808 | 0.184 | 0.199 | – | 0.182 | 0.199 | 0.548 | 0.467 | – | 0.503 | 0.523 | 0.178 | 0.227 | 0.155 | 0.191 | 0.743 | 0.187
ABC-1 | 0.938 | 0.929 | 1.03 | 0.76 | – | – | – | – | – | – | – | – | – | – | – | – | – | – | 1.03 | –
NCI-H2170 | 1.01 | 0.962 | 1.04 | 0.915 | 0.235 | 0.308 | 0.256 | 0.266 | 0.252 | 0.874 | 0.886 | 0.858 | 0.946 | 0.637 | 0.28 | 0.362 | 0.278 | 0.258 | 1.03 | 0.264
NCI-H1299 | 1.12 | 1.06 | 1.07 | 1.07 | – | – | – | – | – | – | – | – | – | – | – | – | – | – | 1.15 | –
EBC-1 | 0.11 | 0.0946 | 0.0866 | 0.1 | – | – | – | – | – | – | – | – | – | – | – | – | – | – | 0.106 | –
NCI-H2347 | – | 0.618 | 0.857 | 1.04 | 0.411 | 0.417 | 0.439 | 0.425 | 0.478 | 0.315 | 0.323 | 0.267 | 0.326 | 0.28 | 0.436 | 0.39 | 0.447 | 0.419 | 0.885 | 0.395
NCI-H1792 | – | – | – | – | 0.691 | 0.76 | – | 0.619 | 0.651 | 0.429 | 0.435 | – | 0.414 | 0.375 | 0.529 | 0.817 | 0.789 | 0.35 | – | 0.877
HCC-44 | – | – | – | – | 0.615 | 0.652 | 0.705 | 0.688 | 0.725 | 1.06 | 1.08 | 1.1 | 0.991 | 1.08 | 0.706 | 0.685 | 0.647 | 0.696 | – | 0.668
A549 | 1.01 | 0.898 | 0.991 | 0.866 | – | – | – | – | – | – | – | – | – | – | – | – | – | – | 1.03 | –
NCI-H1563 | 0.995 | 0.961 | 1.01 | 0.82 | 0.628 | 0.732 | 0.6 | 0.759 | 0.715 | – | – | – | – | – | 0.892 | 0.829 | 0.871 | 0.716 | 0.866 | 0.703
IA-LM | 1.19 | 1.14 | 1.14 | 1.08 | – | – | – | – | – | – | – | – | – | – | – | – | – | – | 1.18 | –
NCI-H1703 | – | 0.312 | 0.321 | 0.339 | – | – | – | – | – | – | – | – | – | – | – | – | – | – | 0.34 | –
NCI-H727 | 0.934 | 0.617 | 0.999 | 1.11 | – | – | – | – | – | 0.363 | 0.335 | 0.352 | 0.357 | 0.38 | – | – | – | – | 1.08 | –
NCI-H1648 | – | – | – | – | 0.753 | 0.786 | – | 0.595 | 1.12 | 0.485 | 0.445 | – | 0.456 | 0.493 | 0.776 | 0.888 | 1.01 | 0.494 | – | 0.644
